# Results: publication PMC11920646 (Frontiers in Pharmacology, 2025)
# “And” between values parts separate entries of the source, which are not always exact repeats. Equal values may be shown once.
# Experiments:
# human GR = target: T1, human GR (Homo sapiens, UniProt P04150); assay: GR reporter gene (transactivation) assay, CHO-Gal4/GR; type: cell-based; conditions: % of reference agonist beclomethasone
# T1 construct: host or cells: CHO (DSMZ ACC-110), CHO-Gal4/GR
# T1 sequence (P04150 524-758 limits assumed): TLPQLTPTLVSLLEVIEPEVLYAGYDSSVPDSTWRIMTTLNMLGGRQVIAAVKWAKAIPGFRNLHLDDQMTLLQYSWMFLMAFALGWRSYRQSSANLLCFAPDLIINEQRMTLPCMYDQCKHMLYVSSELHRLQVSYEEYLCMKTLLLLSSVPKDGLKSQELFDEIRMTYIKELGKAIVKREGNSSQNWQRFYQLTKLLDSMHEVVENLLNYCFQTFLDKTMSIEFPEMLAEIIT
# Text: To create the CHO-Gal4/GR, CHO-Gal4/PR, and CHO-Gal4/MR reporter cell lines, first CHO cells were stably transfected with a GAL4-UAS-luciferase reporter construct. Then, the LBD of the GR, PR, or MR (GR Gene ID: 2908, PR Gene ID: 5241, MR Gene ID: 4306, respectively) was cloned into pIRES2-EGFP-GAL4 containing the DBD of GAL4 from pFA-AT2, and then co-transfected into the luciferase-reporter construct-containing CHO cells. These reporter cell lines express the respective nuclear hormone receptor LBD-DBD fusion proteins that control luciferase expression of a GAL4-upstream activation sequence (UAS)-luciferase reporter construct, allowing for detection of ligand- or compound-induced transactivation at the GR, PR, or MR by measuring luciferase activity.
# Cryo-preserved CHO-Gal4/GR, CHO-Gal4/PR, and CHO-Gal4/MR cells were plated in medium at 7,500 cells/well in 384-well assay plates (25 μL/well), and incubated for 24 h. […] Following a 4-h incubation, cells were lysed and luminescence measured using the EMCCD camera FLIPR®Tetra (Molecular Devices, Silicon Valley, CA, United States).
# Transactivation (i.e., gene activation) was expressed as a percentage of the reference agonist activity (Supplementary Material), using Genedata Screener® v15.0.5 software (Basel, Switzerland).
# Transactivation was calculated according to this equation: […]
# [1] = test system: LPS-induced TNF-α release in rat whole blood; assay: Inhibition of LPS-induced TNF-α release in rat whole blood; type: cell-based; conditions: 18 h
# Procedure: Arterial blood was collected from male Sprague-Dawley rats (180–250 g; Janvier Labs, Le Genest-Saint-Isle, France) in heparin syringes. […] Plasma was collected via centrifugation and TNF-α measured using a TNFalpha Kit (PerkinElmer, Waltham, MA, United States), according to manufacturers’ instructions, and a microplate reader (EnVision Multilabel Reader®, PerkinElmer; Supplementary Material). The IC50 values for inhibition of TNF-α release were calculated by fitting concentration response curves to a four parameter nonlinear regression model using ActivityBase (XLfit® software; ID Business Solutions Ltd.). […] In addition, IC50,free values were determined by correcting the IC50 values for plasma protein binding (PPB); see the Supplementary Material for the calculation.
# The immuno-assay-buffer provided in the kit was diluted 1:10 in water and the mouse TNF-α analyte standard was diluted in rat plasma (30,000–4 pg/mL). […] After a 30-min incubation at room temperature, the plates were read using an EnVision Multilabel Reader® (PerkinElmer) equipped with the ALPHA option using the AlphaScreen standard settings. […]
# [2] = test system: IL-1β–induced IL-6 release in A549 cells; assay: Inhibition of IL-1β–induced IL-6 release in A549 cells; type: cell-based, human
# Procedure: Cells from the human lung epithelial cell line A549 (CCL-185, ATCC) were seeded in 96-well plates at a density of […] in F12K Nutrient Mix (Gibco™, ThermoFisher Scientific, Waltham, MA, United States) with 10% fetal calf serum (FCS), and cultured for 24 h in standard conditions. […] After 30 min’ incubation, human IL-1β (1 ng/mL final concentration) was added at 50 µL/well, followed by a 20 h-incubation in standard conditions. Human IL-6 was measured in the collected supernatant using the human AlphaLISA® immunoassay kit (PerkinElmer; Supplementary Material).
# Per the human AlphaLISA® (PerkinElmer) immunoassay kit instructions, the immuno-assay buffer was diluted 1:10 in water and the human IL-6 analyte standard was diluted in FCS-free F12K nutrient mix (30,000–10 pg/mL). Each standard dilution or sample (5 μL each) was added to the wells of a 96-well polystyrene compound plate, to which 20 µL of the test mix 1 (containing anti-IL-6 acceptor beads and biotinylated anti-IL-6 antibody diluted 1:200 in immuno-assay-buffer) was added to each well and incubated for 1 h at room temperature. Afterwards, donor beads were diluted 1:62.5 in immuno-assay-buffer and 25 µL were transferred to each well. After a 30-min incubation at room temperature, the plates were read using an EnVision Multilabel Reader® (PerkinElmer) equipped with the ALPHA option.
# [3] = test system: SCW-induced ankle inflammation in female Lewis rats; assay: Rat streptococcal cell wall (SCW) model of joint inflammation; type: in vivo
# Procedure: Female Lewis rats (150–200 g, Charles River, United Kingdom) were used for the model of joint inflammation (see Supplementary Material for animal care), with in vivo efficacy assays conducted at the Saretius Ltd., Science and Technology Centre (Reading, United Kingdom). Monoarticular joint inflammation was induced on Day −21 by intra-articular injection of 10 μg of streptococcal cell wall (SCW) extract (Lee Laboratories, BD Scientific, Franklin Lakes, NJ, United States) into the left hind ankle joint. […] Treatments, including control, were administered orally once daily on Days −1 to 6 of the study. Additionally, on Day 0, each rat received an intravenous (IV) dose of 100 μg SCW extract 2 h after oral dosing. IV injections were given after rats had spent up to 10 min in a 40°C hot box (Thermacage MK2, Datesand Ltd., Manchester, United Kingdom).
# Rat ankle diameters were measured using digital calipers (Mitutoyo, United Kingdom, Model: CDS6CX), mechanical allodynia tested using von Frey hairs, and rats weighed, per the schedule in Supplementary Table S2. […] On Day 6, rats were euthanized by a schedule 1 method (carbon dioxide) and terminal blood samples collected by cardiac puncture. After centrifugation to obtain plasma supernatant (10,000 rpm, 3 min), plasma was stored at −20°C until analysis. […] Glucose test strips (Roche Accu-Check with Aviva blood glucose system meter) were used to measure blood glucose levels at the time blood was drawn. All data were analyzed with Statistica v11 software (StatSoft Inc., Tulsa, OK, United States), using the Kolmogorov-Smirnov test to assess normality of distribution (see Supplementary Material for further detail), and to determine total area under the concentration-time curve (AUC) using the trapezoidal method. […] The effect of each treatment on ankle inflammation was determined by the reduction in ipsilateral ankle AUC versus control.
# Data that was not normally distributed were analyzed with Kruskal-Wallis analysis of variance (ANOVA) followed by Dunn’s multiple comparisons tests. Normally distributed data were analyzed with repeated measures ANOVAs as appropriate, one-way ANOVAs and Dunnett’s post hoc tests.
# [4] = test system: IL-6 release in A549 cells; parameters: method as in Hu et al., 2011; conditions: dagrocorat study ref Hu et al., 2011; cited from earlier work
structure (smiles),measurement,setting,value
C[C@]12C=CC(=O)C=C1CC[C@@H]1[C@@H]2[C@@H](O)C[C@@]2(C)[C@H]1CC[C@]2(O)C(=O)CO [Prednisolone],"GR transactivation, mean activation (efficacy)",human GR,80.5% and 80.5 ± 2.2%
same,IC50,[1],8.1 ± 2.1 nM
same,Inhibition of LPS-induced TNF-α release,[1],99 ± 3%
same,Inhibition of IL-1β–induced IL-6 release,[2]; 100% = 1 μM dexamethasone,101 ± 2.7%
same,IC50,"[2]; Homo sapiens, IL-1β 1 ng/mL, 20 h",0.86 ± 0.13 nM
same,change in blood glucose AUC2.5–24h versus vehicle,"[3]; Day 5, GRM-01 any dose 0.01–1 mg/kg/day, prednisolone 30 mg/kg/day",statistically significant increase
same,blood glucose at time points post dose versus vehicle,"[3]; Day 5, GRM-01 at 2.5 h, all doses except 0.03 mg/kg/day, not dose dependent, prednisolone 30 mg/kg/day at 2.5, 4 and 6 h",significantly higher blood glucose levels
same,effect on plasma corticosterone levels vs vehicle,"[3]; Day 6, GRM-01 significant at 0.3 mg/kg/day (p < 0.01), prednisolone 30 mg/kg/day (p < 0.01)",reduced plasma corticosterone levels
same,antinociceptive effect (ipsilateral paw withdrawal threshold vs vehicle),"[3]; GRM-01 0.1, 0.3, 1 mg/kg/day, prednisolone 30 mg/kg/day",demonstrated an antinociceptive effect
same,ED50,"[3]; rat SCW model, separate and independent study, doses 0.003–30 mg/kg, read-out: ED50, change in AUC of ankle diameter",2.49 mg/kg
same,inhibition of IL-6 release in A549 cells,[4],100%
